Experimental data taken from PubChem BioAssay (NCI).
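These data come from cells grown in 96-well plates and exposed to compound for 48 hours at five concentrations. TGI: total growth inhibition.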

Columns and labels:
Experiment in all cases: inhibition of tumour cell growth, NCI panel, 48 h
[1] = tested on: 786-0 renal
[2] = tested on: A498 renal
[3] = tested on: A549 NSCLC
[4] = tested on: ACHN renal
[5] = tested on: BT-549 breast
[6] = tested on: CAKI-1 renal
[7] = tested on: COLO 205 colon
[8] = tested on: DU-145 prostate
[9] = tested on: EKVX NSCLC
[10] = tested on: HCT-116 colon
[11] = tested on: HCT-15 colon
[12] = tested on: HL-60(TB) leukemia
[13] = tested on: HOP-62 NSCLC
[14] = tested on: HOP-92 NSCLC
[15] = tested on: HS 578T breast
[16] = tested on: HT29 colon
[17] = tested on: IGROV1 ovarian
[18] = tested on: K-562 leukemia
[19] = tested on: KM12 colon
[20] = tested on: LOX IMVI melanoma
[21] = tested on: M14 melanoma
[22] = tested on: MALME-3M melanoma
[23] = tested on: MCF7 breast
[24] = tested on: MDA-MB-231 breast
[25] = tested on: MDA-MB-435
[26] = tested on: MOLT-4 leukemia
[27] = tested on: NCI-H226 lung
[28] = tested on: NCI-H23 lung
[29] = tested on: NCI-H460 lung
[30] = tested on: NCI-H522 lung
[31] = tested on: NCI/ADR-RES ovarian
[32] = tested on: OVCAR-3 ovarian
[33] = tested on: OVCAR-4 ovarian
[34] = tested on: OVCAR-5 ovarian
[35] = tested on: OVCAR-8 ovarian
[36] = tested on: PC-3 prostate
[37] = tested on: RPMI-8226 leukemia
[38] = tested on: RXF 393 renal
[39] = tested on: SF-268 CNS
[40] = tested on: SF-295 CNS
[41] = tested on: SF-539 CNS
[42] = tested on: SK-MEL-2 melanoma
[43] = tested on: SK-MEL-28 melanoma
[44] = tested on: SK-MEL-5 melanoma
[45] = tested on: SK-OV-3 ovarian
[46] = tested on: SN12C renal
[47] = tested on: SNB-19 CNS
[48] = tested on: SNB-75 CNS
[49] = tested on: SR leukemia
[50] = tested on: SW-620 colon
[51] = tested on: T-47D breast
[52] = tested on: TK-10 renal
[53] = tested on: U251 CNS
[54] = tested on: UACC-257 melanoma
[55] = tested on: UACC-62 melanoma
[56] = tested on: UO-31 renal
[57] = tested on: CCRF-CEM leukemia
[58] = tested on: HCC-2998 colon
[59] = tested on: MDA-N

With `Cc1cccc(N=C/C=C(\Cl)c2ccc3ccccc3c2)c1` the TGI [1] was 34.9 µM, the TGI [2] was > 100 µM and the TGI [3] was > 100 µM. The TGI [4] was 30.7 µM, the TGI [5] was 44.5 µM and the TGI [6] was 34.5 µM. For the same compound, the TGI [7] was 45.8 µM, the TGI [8] was 36.9 µM and the TGI [9] was > 100 µM. It also gave a TGI [10] of 9.02 µM, a TGI [11] of 28.2 µM and a TGI [12] of 38.5 µM. The TGI [13] was 35.4 µM, the TGI [14] was > 62.3 µM and the TGI [15] was > 96.7 µM. The TGI [16] was > 62.7 µM, the TGI [17] was > 60.3 µM and the TGI [18] was 40 µM. It also gave a TGI [19] of 41 µM, a TGI [20] of 9.27 µM and a TGI [21] of 38 µM. The TGI [22] was 36.4 µM, the TGI [23] was > 95.9 µM and the TGI [24] was 33.6 µM. The TGI [25] was 39.8 µM, the TGI [26] was 8.19 µM and the TGI [27] was > 69.3 µM. The TGI [28] was 34.5 µM, the TGI [29] was > 80.9 µM and the TGI [30] was > 78.7 µM. The TGI [31] was 47.7 µM, the TGI [32] was 32.3 µM and the TGI [33] was 41.2 µM. The TGI [34] was > 65.6 µM, the TGI [35] was 43 µM and the TGI [36] was 53.1 µM. For the same compound, the TGI [37] was 29 µM, the TGI [38] was > 56.9 µM and the TGI [39] was > 79.4 µM. The TGI [40] was > 58.7 µM, the TGI [41] was 40.7 µM and the TGI [42] was 68.9 µM. For the same compound, the TGI [43] was 63.6 µM, the TGI [44] was 37.1 µM and the TGI [45] was 53.5 µM. The TGI [46] was 41.1 µM, the TGI [47] was 33 µM and the TGI [48] was > 58.2 µM. For the same compound, the TGI [49] was 8.24 µM, the TGI [50] was > 66.5 µM and the TGI [51] was 37.2 µM. The TGI [52] was 50.8 µM, the TGI [53] was 31 µM and the TGI [54] was 39.1 µM. For the same compound, the TGI [55] was 32.5 µM and the TGI [56] was 34.4 µM.

With `COC(=O)[C@H](COC(C)(C)C)NC(=O)N[C@H](C)c1ccccc1` the TGI [1] was > 100 µM, the TGI [2] was > 100 µM and the TGI [3] was > 100 µM. The TGI [4] was > 100 µM, the TGI [5] was > 100 µM and the TGI [6] was > 100 µM. The TGI [57] was > 100 µM, the TGI [7] was > 100 µM and the TGI [8] was > 100 µM. For the same compound, the TGI [9] was > 100 µM, the TGI [58] was > 100 µM and the TGI [10] was > 100 µM. For the same compound, the TGI [11] was > 100 µM, the TGI [12] was > 100 µM and the TGI [13] was > 100 µM. For the same compound, the TGI [14] was > 100 µM, the TGI [15] was > 100 µM and the TGI [16] was > 100 µM. The TGI [17] was > 100 µM, the TGI [18] was > 100 µM and the TGI [19] was > 100 µM. The TGI [20] was > 100 µM, the TGI [21] was > 100 µM and the TGI [23] was > 100 µM. For the same compound, the TGI [24] was > 100 µM, the TGI [25] was > 100 µM and the TGI [59] was > 100 µM. For the same compound, the TGI [26] was > 100 µM, the TGI [27] was > 100 µM and the TGI [28] was > 100 µM. For the same compound, the TGI [29] was > 100 µM, the TGI [30] was > 100 µM and the TGI [31] was > 100 µM. The TGI [32] was > 100 µM, the TGI [33] was > 100 µM and the TGI [34] was > 100 µM. For the same compound, the TGI [35] was > 100 µM, the TGI [36] was > 100 µM and the TGI [37] was > 100 µM. For the same compound, the TGI [39] was > 100 µM, the TGI [40] was > 100 µM and the TGI [41] was > 100 µM. The TGI [42] was > 100 µM, the TGI [43] was > 100 µM and the TGI [44] was > 100 µM. The TGI [45] was > 100 µM, the TGI [46] was > 100 µM and the TGI [47] was > 100 µM. The TGI [48] was > 100 µM, the TGI [49] was > 100 µM and the TGI [50] was > 100 µM. The TGI [52] was > 100 µM, the TGI [53] was > 100 µM and the TGI [54] was > 100 µM. For the same compound, the TGI [55] was > 100 µM and the TGI [56] was > 100 µM.
